The results in this text go back to publication PMC12435366, “Maleic anhydride derived diphosphines: adaptable chelators for receptor-targeted ^99mTc, ^64Cu and ^188Re radiotracers” (Chemical Science, 2025).

Molecules are shown by their SMILES.

This assay deals with LNCaP prostate cancer cells. Kind of assay: In vitro uptake of 99mTc tracers in LNCaP cells. It counts as cell-based. The note with it: co-incubation with PMPA, 1 h. On the procedure:
To compare the relative uptake and specificity of the new radiotracers for PSMA, [^99mTcO2(DP^Ph-PSMAt)2]^+, [^99mTcO2(DP^An-PSMAt)2]^+ and [^99mTcO2(DP^MEP-PSMAt)2]^+ (50 kBq) were purified from unreacted ^99mTc precursors and excess DP-PSMAt peptide, and each incubated with PSMA-expressing DU145-PSMA+ prostate cancer cells[33] or LNCaP prostate cancer cells (5 × 10^5 cells). After 1 h incubation, uptake of each radiotracer was quantified. […]
4.9 99mTc uptake in DU145, DU145-PSMA+ and LNCaP cells
The following experiment was performed in biological triplicate.
A panel of cell lines were selected that either expressed GCP(II)/PSMA (DU145-PSMA+ (genetically modified to express PSMA),12 and LNCaP (CRL‐1740)), or had low GCP(II)/PSMA expression (DU145 (HTB-81)). All cell lines were cultured in RPMI 1640 medium (R0883, Sigma) containing 10% foetal bovine serum, 2 mM L-glutamine, and 100 U mL−1 penicillin and 100 µg mL−1 streptomycin. Cells were maintained at 37 °C and 5% CO 2. Cells were seeded in 6-well plates at a density of 5 × 10^5 cells per well […]
in 2 mL complete media to achieve 70–80% confluency the following day. […] The cells were lysed with ice cold radioimmunoprecipitation assay buffer (RIPA buffer, 500 μL; 150 mM sodium chloride, 0.1% w/w sodium dodecyl sulfate (SDS), 0.5% w/w sodium deoxycholate (NaDOC), 1% w/w Triton-X) and samples were collected for radioactivity counting. […]

With `COCCOc1ccc(P(/C(C(=O)O)=C(/C(=O)NCCOCCOCCOCCOCCC(=O)NCCCC[C@H](NC(=O)N[C@@H](CCC(=O)O)C(=O)O)C(=O)O)P(c2ccc(OCCOC)cc2)c2ccc(OCCOC)cc2)c2ccc(OCCOC)cc2)cc1` [[^99mTcO2(DP^MEP-PSMAt)2]^+, metal not drawn], the “blocking of cell uptake by PSMA inhibitor PMPA” value is on record as “blocked”.
Regarding `COc1ccc(P(/C(C(=O)O)=C(/C(=O)NCCOCCOCCOCCOCCC(=O)NCCCC[C@H](NC(=O)N[C@@H](CCC(=O)O)C(=O)O)C(=O)O)P(c2ccc(OC)cc2)c2ccc(OC)cc2)c2ccc(OC)cc2)cc1` [[^99mTcO2(DP^An-PSMAt)2]^+, metal not drawn], the “blocking of cell uptake by PSMA inhibitor PMPA” value is listed as “blocked”.
